Assay results published in patent US6613799B1, “Liposoluble platinum (II) complex and preparation thereof” (priority 1985, dated 2003).
Like-named read-outs stand apart in the source and are kept apart here. Marks after values point to notes of the source that are not given here.

Tests used:
[1] = system: L 1210 leukemia cells; format: in vivo
[2] = cited from earlier work
[3] = 11.6 mg/kg × 2 i.p., dispersion in lipiodol, oleic acid moiety two times stoichiometric amount, Table III
[4] = L1210-CDF1 mice, dispersion in lipiodol
[5] = 31.5 mg/kg × 2 i.p. in lipiodol, Table III
[6] = 157 mg/kg × 2 i.p. in lipiodol, Table III
[7] = 787 mg/kg, administered only one time, i.p. in lipiodol, Table III
[8] = 57 mg/kg × 2 i.p. in lipiodol, Table III
[9] = 171 mg/kg × 2 i.p. in lipiodol, Table III
[10] = 855 mg/kg × 2 i.p. in lipiodol, Table III
[11] = 25 mg/kg × 2 i.p. in lipiodol, Table I
[12] = 126 mg/kg × 2 i.p. in lipiodol, Table I
[13] = 630 mg/kg × 2 i.p. in lipiodol, Table I

Question: With `N.N.[Cl][Pt][Cl]` [CDDP, Cis-dichlorodiammine platinum (II), reference compound] as the molecule, how does the “CR (mice completely cured / total mice tested)” value [1, 3] read?
Answer: 0/5

Question: And the “T/C (mean survival time treated / control)” value [1, 3]?
Answer: 182

Question: What about the “MST (mean survival time)” value ([1]; 11.6 mg/kg × 2 i.p., dispersion in lipiodol, oleic acid moiety two times stoichiometric amount, Table III control MST 8.5) of the same molecule?
Answer: 15.5

Question: What about the “T/C (mean survival time treated / control)” value ([1]; 58 mg/kg × 2 i.p., dispersion in lipiodol, oleic acid moiety two times stoichiometric amount, Table III) of the same molecule?
Answer: Toxic

Question: And the “MST (mean survival time)” value ([1]; 58 mg/kg × 2 i.p., dispersion in lipiodol, oleic acid moiety two times stoichiometric amount, Table III control MST 8.5)?
Answer: 4.0

Question: What about the “complete recovery at rather low dose” value [1, 4] of the same molecule?
Answer: complete recovery is not observed

Question: With `NC1CCCCC1N.[Cl][Pt][Cl]` (stereo not drawn) [DACHP, Dichloro cyclohexane-1,2-diammine platinum (II), reference compound] as the molecule, how does the “T/C (mean survival time treated / control)” value ([1]; 22 mg/kg × 2 i.p., dispersion in lipiodol, oleic acid moiety two times stoichiometric amount, Table III) read?
Answer: Toxic

Question: What about the “MST (mean survival time)” value ([1]; 22 mg/kg × 2 i.p., dispersion in lipiodol, oleic acid moiety two times stoichiometric amount, Table III control MST 8.5) of the same molecule?
Answer: 7.0

Question: What about the “T/C (mean survival time treated / control)” value ([1]; 110 mg/kg × 2 i.p., dispersion in lipiodol, oleic acid moiety two times stoichiometric amount, Table III) of the same molecule?
Answer: Toxic

Question: And the “MST (mean survival time)” value ([1]; 110 mg/kg × 2 i.p., dispersion in lipiodol, oleic acid moiety two times stoichiometric amount, Table III control MST 8.5)?
Answer: 4.0

Question: What about the “toxicity when administered in a high dose” value ([1]; high dose, L1210-CDF1 mice, i.p. in lipiodol) of the same molecule?
Answer: high toxicity

Question: What about the “complete recovery at rather low dose” value [1, 4] of the same molecule?
Answer: complete recovery is not observed

Question: With `CCCCCCCCCCCCCCCCCCCC(=O)[O][Pt][O]C(=O)CCCCCCCCCCCCCCCCCCC.NC1CCCCC1N` [DACHPt(II)-(Ara)2] as the molecule, how does the “T/C (mean survival time treated / control)” value ([1]; 73 mg/kg × 2 i.p. in lipiodol, Table II) read?
Answer: 211

Question: And the “MST (mean survival time)” value ([1]; 73 mg/kg × 2 i.p. in lipiodol, Table II control MST 9.5)?
Answer: 20

Question: What about the “T/C (mean survival time treated / control)” value ([1]; 225 mg/kg × 2 i.p. in lipiodol, Table II) of the same molecule?
Answer: 600

Question: What about the “MST (mean survival time)” value ([1]; 225 mg/kg × 2 i.p. in lipiodol, Table II control MST 9.5) of the same molecule?
Answer: 60

Question: And the “T/C (mean survival time treated / control)” value ([1]; 1127 mg/kg × 2 i.p. in lipiodol, Table II)?
Answer: Toxic

Question: What about the “MST (mean survival time)” value ([1]; 1127 mg/kg × 2 i.p. in lipiodol, Table II control MST 9.5) of the same molecule?
Answer: 7.0

Question: For `CCCCCCCCCCCCCCCCCCCCCC(=O)[O][Pt][O]C(=O)CCCCCCCCCCCCCCCCCCCCC.NC1CCCCC1N` [DACHPt(II)-(Beh)2], which “T/C (mean survival time treated / control)” value ([1]; 80 mg/kg × 2 i.p. in lipiodol, Table III) is on record?
Answer: 212

Question: And the “MST (mean survival time)” value ([1]; 80 mg/kg × 2 i.p. in lipiodol, Table III control MST 8.5)?
Answer: 18.0

Question: What about the “T/C (mean survival time treated / control)” value ([1]; 1195 mg/kg, administered only one time, i.p. in lipiodol, Table III) of the same molecule?
Answer: Toxic

Question: And the “MST (mean survival time)” value ([1]; 1195 mg/kg, administered only one time, i.p. in lipiodol, Table III control MST 8.5)?
Answer: 2.0*^1

Question: What does the source list for `CCCCCCCCCC(=O)[O][Pt]1([O]C(=O)CCCCCCCCC)[NH]C2CCCCC2[NH]1` (stereo not drawn) [DACHPt(II)-(Cap)2]?
Answer: CR (mice completely cured / total mice tested) [1, 5]: 0/6; T/C (mean survival time treated / control) [1, 5]: 133; MST (mean survival time) ([1]; 31.5 mg/kg × 2 i.p. in lipiodol, Table III control MST 8.5): 12.0; CR (mice completely cured / total mice tested) [1, 6]: 2/6; T/C (mean survival time treated / control) [1, 6]: Toxic; CR (mice completely cured / total mice tested) [1, 7]: 0/6; T/C (mean survival time treated / control) [1, 7]: 111; MST (mean survival time) ([1]; 787 mg/kg, administered only one time, i.p. in lipiodol, Table III control MST 8.5): 10.0*^1

Question: What does the source list for `CCCCCCCCCCCC(=O)[O][Pt][O]C(=O)CCCCCCCCCCC.NC1CCCCC1N` [DACHPt(II)-(Lau)2]?
Answer: CR (mice completely cured / total mice tested) [1, 8]: 0/5; T/C (mean survival time treated / control) [1, 8]: 141; MST (mean survival time) ([1]; 57 mg/kg × 2 i.p. in lipiodol, Table III control MST 8.5): 12.0; CR (mice completely cured / total mice tested) [1, 9]: 0/5; T/C (mean survival time treated / control) [1, 9]: 165; MST (mean survival time) ([1]; 171 mg/kg × 2 i.p. in lipiodol, Table III control MST 8.5): 14.0; CR (mice completely cured / total mice tested) [1, 10]: 3/5; T/C (mean survival time treated / control) [1, 10]: 471; MST (mean survival time) ([1]; 855 mg/kg × 2 i.p. in lipiodol, Table III control MST 8.5): 40.0

Question: With `CCCCCCCCCCCCCCCCCCCCCCCC(=O)[O][Pt][O]C(=O)CCCCCCCCCCCCCCCCCCCCCCC.NC1CCCCC1N` [DACHPt(II)-(Lig)2] as the molecule, how does the “T/C (mean survival time treated / control)” value ([1]; 50 mg/kg × 2 i.p. in lipiodol, Table I) read?
Answer: 150

Question: And the “MST (mean survival time)” value ([1]; 50 mg/kg × 2 i.p. in lipiodol, Table I control MST 10)?
Answer: 10

Question: What about the “T/C (mean survival time treated / control)” value ([1]; 250 mg/kg × 2 i.p. in lipiodol, Table I) of the same molecule?
Answer: 100

Question: What about the “MST (mean survival time)” value ([1]; 250 mg/kg × 2 i.p. in lipiodol, Table I control MST 10) of the same molecule?
Answer: 10

Question: What about the “T/C (mean survival time treated / control)” value ([1]; 1250 mg/kg × 2 i.p. in lipiodol, Table I) of the same molecule?
Answer: 105

Question: And the “MST (mean survival time)” value ([1]; 1250 mg/kg × 2 i.p. in lipiodol, Table I control MST 10)?
Answer: 10.5

Question: What about the “CR (mice completely cured / total mice tested)” value ([1]; mouse, in vivo) of the same molecule?
Answer: 0/6

Question: With `CCCCCCCCCCCCCC(=O)[O][Pt][O]C(=O)CCCCCCCCCCCCC.NC1CCCCC1N` [DACHPt(II)-(Myr)2] as the molecule, how does the “T/C (mean survival time treated / control)” value ([1]; 33 mg/kg × 2 i.p. in lipiodol, Table I) read?
Answer: 150

Question: And the “MST (mean survival time)” value ([1]; 33 mg/kg × 2 i.p. in lipiodol, Table I control MST 10)?
Answer: 15.0

Question: And the “T/C (mean survival time treated / control)” value ([1]; 833 mg/kg, administered only one time, i.p. in lipiodol, Table I)?
Answer: Toxic

Question: What about the “MST (mean survival time)” value ([1]; 833 mg/kg, administered only one time, i.p. in lipiodol, Table I control MST 10) of the same molecule?
Answer: 8.0*^1

Question: With `CCCCCCCC/C=C\CCCCCCCC(=O)[O-].CCCCCCCC/C=C\CCCCCCCC(=O)[O-].NC1CCCCC1N.[Pt+2]` [DACHPt(II)-(Ole)2, Cyclohexane-1,2-diammine Platinum (II) Dioleate] as the molecule, how does the “CR (mice completely cured / total mice tested)” value [1, 11] read?
Answer: 0/5

Question: What about the “T/C (mean survival time treated / control)” value [1, 11] of the same molecule?
Answer: 130

Question: What about the “MST (mean survival time)” value ([1]; 25 mg/kg × 2 i.p. in lipiodol, Table I control MST 10) of the same molecule?
Answer: 13.0

Question: And the “CR (mice completely cured / total mice tested)” value [1, 12]?
Answer: 0/6

Question: And the “T/C (mean survival time treated / control)” value [1, 12]?
Answer: 170

Question: And the “MST (mean survival time)” value ([1]; 126 mg/kg × 2 i.p. in lipiodol, Table I control MST 10)?
Answer: 17.0

Question: And the “CR (mice completely cured / total mice tested)” value [1, 13]?
Answer: 2/7

Question: And the “T/C (mean survival time treated / control)” value [1, 13]?
Answer: Toxic

Question: Which results are given for `CCCCCCCCCCCCCCCC(=O)[O][Pt][O]C(=O)CCCCCCCCCCCCCCC.NC1CCCCC1N` [DACHPt(II)-(Pal)2]?
Answer: T/C (mean survival time treated / control) ([1]; 40 mg/kg × 2 i.p. in lipiodol, Table I): 110; MST (mean survival time) ([1]; 40 mg/kg × 2 i.p. in lipiodol, Table I control MST 10): 11; T/C (mean survival time treated / control) ([1]; 198 mg/kg × 2 i.p. in lipiodol, Table I): 115; MST (mean survival time) ([1]; 198 mg/kg × 2 i.p. in lipiodol, Table I control MST 10): 11.5; T/C (mean survival time treated / control) ([1]; 991 mg/kg × 2 i.p. in lipiodol, Table I): 170; MST (mean survival time) ([1]; 991 mg/kg × 2 i.p. in lipiodol, Table I control MST 10): 17; CR (mice completely cured / total mice tested) ([1]; mouse, in vivo): 0/6

Question: Which “T/C (mean survival time treated / control)” value ([1]; 71 mg/kg × 2 i.p. in lipiodol, Table III) does the source give for `CCCCCCCCCCCCCCCCCC(=O)[O][Pt][O]C(=O)CCCCCCCCCCCCCCCCC.NC1CCCCC1N` [DACHPt(II)-(Ste)2] here?
Answer: 212

Question: And the “MST (mean survival time)” value ([1]; 71 mg/kg × 2 i.p. in lipiodol, Table III control MST 8.5)?
Answer: 18.0

Question: What about the “T/C (mean survival time treated / control)” value ([1]; 1060 mg/kg, administered only one time, i.p. in lipiodol, Table III) of the same molecule?
Answer: Toxic

Question: And the “MST (mean survival time)” value ([1]; 1060 mg/kg, administered only one time, i.p. in lipiodol, Table III control MST 8.5)?
Answer: 7.0*^1

Question: And the “CR (mice completely cured / total mice tested)” value ([1]; mouse, in vivo)?
Answer: 2/5

Question: Which water solubility [2] does the source give for `N.N.O=C([O-])C1(C(=O)[O-])CCC1.[Pt+2]` [carboplatin, cis-diammine-1,1-cyclobutane-dicarboxylate platinum (II)] here?
Answer: 17800 µg/mL

Question: Which water solubility [2] does the source give for `NCC1(CN)CCCCC1.O=S(=O)([O-])[O-].[Pt+2]` [spiroplatin, cis-1,1-di-(aminomethyl) cyclohexane platinum (II) sulfate] here?
Answer: 1000 µg/mL
